The target in assay [1] is T1, Estrogen receptor (Homo sapiens, UniProt P03372).
T1 sequence (P03372 whole entry): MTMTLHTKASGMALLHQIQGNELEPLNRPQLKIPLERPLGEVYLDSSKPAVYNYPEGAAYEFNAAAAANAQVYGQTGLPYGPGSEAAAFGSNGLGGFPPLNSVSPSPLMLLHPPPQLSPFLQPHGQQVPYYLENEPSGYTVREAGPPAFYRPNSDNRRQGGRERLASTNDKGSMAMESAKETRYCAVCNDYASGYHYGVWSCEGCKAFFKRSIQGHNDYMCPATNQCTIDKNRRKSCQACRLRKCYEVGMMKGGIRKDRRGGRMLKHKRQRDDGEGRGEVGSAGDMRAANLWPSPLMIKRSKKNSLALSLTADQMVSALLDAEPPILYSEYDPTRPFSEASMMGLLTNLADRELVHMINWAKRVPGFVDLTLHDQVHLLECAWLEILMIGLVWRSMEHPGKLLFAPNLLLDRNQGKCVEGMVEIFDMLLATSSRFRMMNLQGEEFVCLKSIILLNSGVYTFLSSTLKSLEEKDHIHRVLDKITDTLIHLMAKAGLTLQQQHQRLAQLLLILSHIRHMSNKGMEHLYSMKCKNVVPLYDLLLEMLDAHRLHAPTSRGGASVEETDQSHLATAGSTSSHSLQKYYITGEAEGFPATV
As to the kind of experiment: Antagonist activity at ERalpha (unknown origin) transfected in 17beta-estradiol induced-HEK293 cells assessed as inhibition of estradiol-mediated protein transcriptional activity after 16 to 20 hrs by Luciferase reporter gene assay.

Assay [2] concerns the target T2, Estrogen receptor (Homo sapiens) (UniProt P03372).
T2 sequence (whole entry): T1 sequence (P03372 whole entry)
The assay is described as follows: Down regulation of ERalpha in human MCF7 cells after 6 hrs in presence of 10 uM proteasome inhibitor MG132 by Western blot analysis. The class given is cell-based.

Assay [3] has as its target T2, Estrogen receptor (Homo sapiens). As to the kind of experiment: Down regulation of ERalpha in human MCF7 cells at 10 uM after 6 hrs by Western blot analysis in absence of MG132.
The target in assay [4] is T1, Estrogen receptor. The assay is described as follows: Displacement of Fluormone ES2 from human recombinant full length untagged-ERalpha by fluorescence polarization competition binding assay.

The values below come from ChEMBL document CHEMBL3804822 (Bioorg Med Chem, 2016).

Each structure is given as a SMILES string. Active and inactive are the calls of the source. No cut-off for these calls is given here.

For `CCCCCCCCCCCCNCCOc1ccc(C(=O)c2c(-c3ccc(O)cc3)sc3cc(O)ccc23)cc1`, the IC50 on Estrogen receptor [1] turned out to be 0.09 nM; on Estrogen receptor [4], 5.9 nM. The result in assay [2] was inactive. The Activity result in assay [3] is “Dose-dependent effect”.

`CCCCCCCCCCCCCCCCCCNCCOc1ccc(C(=O)c2c(-c3ccc(O)cc3)sc3cc(O)ccc23)cc1`: the IC50 at Estrogen receptor [4] worked out at 1.8 nM.

Regarding `CCCCCCCCCCCCCCNCCOc1ccc(C(=O)c2c(-c3ccc(O)cc3)sc3cc(O)ccc23)cc1`, the IC50 at Estrogen receptor [4] came to 28 nM.

Turning to `CCCCCCCCNCCOc1ccc(C(=O)c2c(-c3ccc(O)cc3)sc3cc(O)ccc23)cc1`, the IC50 on Estrogen receptor [4] is 49 nM.

As for `CCCCCCNCCOc1ccc(C(=O)c2c(-c3ccc(O)cc3)sc3cc(O)ccc23)cc1`, the IC50 on Estrogen receptor [4] was 61 nM.

Take `CCCCCCCCCCNCCOc1ccc(C(=O)c2c(-c3ccc(O)cc3)sc3cc(O)ccc23)cc1`: the IC50 on Estrogen receptor [1] was 0.68 nM; at Estrogen receptor [4] it was 40 nM. Besides, the outcome in assay [2] was inactive. Also, in assay [3], the Activity result was “Dose-dependent effect”.

For the compound `CCCCCCCCCCCCCCCCNCCOc1ccc(C(=O)c2c(-c3ccc(O)cc3)sc3cc(O)ccc23)cc1`, the IC50 at Estrogen receptor [4] came to 11 nM.
